In ChEMBL document CHEMBL4190380, “Preliminary in vitro and in vivo investigation of a potent platelet derived growth factor receptor (PDGFR) family kinase inhibitor” (Bioorg Med Chem Lett, 2018):
Active and inactive are the calls of the source. The calls are words filed in the database; no cut-off is given here.

Experiments:
P815 [1] = assay: Cytotoxicity in mouse P815 cells expressing KIT D814Y mutant assessed as reduction in cell viability incubated for 48 hrs by MTT assay; type: functional, cell-based; conditions: P815, 48 h
[2] = target: Platelet-derived growth factor receptor beta (Homo sapiens, UniProt P09619); assay: Binding affinity to PDGFRbeta (unknown origin)
Sequence of Platelet-derived growth factor receptor beta (P09619 whole entry): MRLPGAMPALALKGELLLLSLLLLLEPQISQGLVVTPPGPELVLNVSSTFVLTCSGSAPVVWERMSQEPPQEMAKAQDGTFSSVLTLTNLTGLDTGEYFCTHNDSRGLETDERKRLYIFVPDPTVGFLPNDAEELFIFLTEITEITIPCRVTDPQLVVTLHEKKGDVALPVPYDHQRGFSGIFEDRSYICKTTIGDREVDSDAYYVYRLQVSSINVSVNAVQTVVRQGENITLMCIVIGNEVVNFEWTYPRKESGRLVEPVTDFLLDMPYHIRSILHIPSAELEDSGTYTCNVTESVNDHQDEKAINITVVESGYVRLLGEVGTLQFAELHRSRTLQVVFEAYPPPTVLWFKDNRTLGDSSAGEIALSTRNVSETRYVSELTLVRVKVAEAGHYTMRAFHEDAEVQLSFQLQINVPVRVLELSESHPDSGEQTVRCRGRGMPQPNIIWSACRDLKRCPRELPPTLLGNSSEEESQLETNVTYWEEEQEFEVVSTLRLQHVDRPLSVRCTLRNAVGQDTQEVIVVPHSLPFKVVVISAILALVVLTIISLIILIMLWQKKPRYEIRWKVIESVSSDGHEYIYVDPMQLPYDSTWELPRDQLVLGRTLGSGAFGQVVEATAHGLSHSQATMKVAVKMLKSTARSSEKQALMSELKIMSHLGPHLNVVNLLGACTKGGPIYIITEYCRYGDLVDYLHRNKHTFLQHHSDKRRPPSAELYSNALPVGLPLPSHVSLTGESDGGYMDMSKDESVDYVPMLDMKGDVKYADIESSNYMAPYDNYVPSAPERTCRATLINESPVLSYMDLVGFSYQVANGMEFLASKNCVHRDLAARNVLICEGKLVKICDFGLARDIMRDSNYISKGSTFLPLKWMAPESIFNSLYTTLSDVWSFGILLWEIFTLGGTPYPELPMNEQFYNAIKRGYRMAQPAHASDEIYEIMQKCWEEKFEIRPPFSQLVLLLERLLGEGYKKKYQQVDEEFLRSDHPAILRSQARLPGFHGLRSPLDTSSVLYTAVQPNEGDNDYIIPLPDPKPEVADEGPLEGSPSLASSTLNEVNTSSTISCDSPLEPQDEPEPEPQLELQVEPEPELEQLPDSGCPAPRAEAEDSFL

P815 [3] = assay: Toxicity in mouse P815 cells expressing KIT D814Y mutant assessed as reduction in total STAT3 protein level at 5 uM by Western blot method; type: cell-based; conditions: p815, 5 µM
Mus musculus [4] = assay: In-vivo suppression of KIT signalling in C57BL/6 mouse assessed as hair depigmentation at 75 mg/kg, ip administered once daily for 17 days by photography; type: functional, organism-based
Mus musculus [5] = assay: In-vivo suppression of PDGFR signalling in C57BL/6 mouse assessed as retardation of hair re-growth at 75 mg/kg, ip administered once daily for 17 days by photography; type: functional, organism-based
[6] = tested on: Mast/stem cell growth factor receptor Kit (Mus musculus), P05532 [D814Y]; assay: Inhibition of KIT D814Y mutant in mouse P815 cells assessed as reduction in STAT3 Tyr705 phosphorylation at 500 nM to 5 uM by Western blot method; type: cell-based
Sequence of Mast/stem cell growth factor receptor Kit (Mus musculus), P05532 [D814Y] (P05532 with tags, fused parts or gaps D814Y): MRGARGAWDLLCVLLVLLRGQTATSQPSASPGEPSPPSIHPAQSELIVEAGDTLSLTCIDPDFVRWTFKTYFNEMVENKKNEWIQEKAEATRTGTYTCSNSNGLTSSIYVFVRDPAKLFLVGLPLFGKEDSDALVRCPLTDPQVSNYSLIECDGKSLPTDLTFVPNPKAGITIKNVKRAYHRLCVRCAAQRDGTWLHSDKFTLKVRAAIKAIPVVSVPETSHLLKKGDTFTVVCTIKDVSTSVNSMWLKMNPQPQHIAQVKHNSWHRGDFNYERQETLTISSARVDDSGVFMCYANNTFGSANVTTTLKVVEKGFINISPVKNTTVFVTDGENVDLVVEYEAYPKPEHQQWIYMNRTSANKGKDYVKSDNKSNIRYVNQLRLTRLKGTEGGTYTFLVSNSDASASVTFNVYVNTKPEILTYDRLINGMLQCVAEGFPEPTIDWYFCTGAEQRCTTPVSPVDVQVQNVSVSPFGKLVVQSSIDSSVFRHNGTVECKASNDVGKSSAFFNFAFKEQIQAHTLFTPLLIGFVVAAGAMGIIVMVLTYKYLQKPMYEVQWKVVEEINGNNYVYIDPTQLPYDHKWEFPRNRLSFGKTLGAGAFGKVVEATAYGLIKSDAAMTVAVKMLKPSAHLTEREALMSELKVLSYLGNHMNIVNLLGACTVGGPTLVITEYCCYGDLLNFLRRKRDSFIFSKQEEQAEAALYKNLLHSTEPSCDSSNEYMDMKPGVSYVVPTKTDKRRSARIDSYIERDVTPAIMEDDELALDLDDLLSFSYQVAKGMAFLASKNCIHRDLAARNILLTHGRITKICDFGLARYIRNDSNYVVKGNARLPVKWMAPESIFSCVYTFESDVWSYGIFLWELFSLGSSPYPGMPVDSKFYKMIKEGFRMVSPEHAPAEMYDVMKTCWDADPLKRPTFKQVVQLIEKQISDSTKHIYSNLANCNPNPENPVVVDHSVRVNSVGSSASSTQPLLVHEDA

P815 [7] = assay: Induction of apoptosis in mouse P815 cells expressing KIT D814Y mutant assessed as reduction in pro-caspase-3 protein level at 500 nM to 5 uM by Western blot method; type: functional, cell-based
Mus musculus [8] = assay: Toxicity in C57BL/6 mouse assessed as induction of mouse mortality at 400 mg/kg, ip for 17 days measured on day 0; type: organism-based; conditions: in vivo, 408 h
Mus musculus [9] = assay: Toxicity in C57BL/6 mouse assessed as body weight loss at 75 mg/kg, ip for 17 days; type: organism-based; conditions: in vivo, 408 h

SMILES	IC50 (P815 [1])	Kd [2]	Activity (P815 [3])	Activity (Mus musculus [4])	Activity (Mus musculus [5])	inhibition [6]	Activity (P815 [7])	Activity (Mus musculus [8])	Activity (Mus musculus [9])
COc1cc2c(N3CCN(C(=O)Nc4ccc(OC(C)C)cc4)CC3)ncnc2cc1OCCCN1CCCCC1 [TANDUTINIB]	0.6 µM	–	–	–	–	–	–	–	–
COCCOc1cc2ncnc(N3CCN(c4ncc(Cc5ccccc5)cn4)CC3)c2cc1OCCOC	0.182 µM	0.008 µM	Toxic	inactive	Active	Active	Dose-dependent effect	Toxic	10%
